Assay results reported in PubChem BioAssay (NCI).
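All cell lines were grown in 96-well plates and treated with compound for 48 hours. Abbreviation: GI50, concentration required for 50% inhibition of growth. The concentration for full growth arrest is given as TGI.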

How the values were obtained:
Assay in all cases: NCI tumour cell line growth inhibition, 48 h
SN12C renal = system: SN12C renal
TK-10 renal = system: TK-10 renal
OVCAR-8 ovarian = system: OVCAR-8 ovarian
K-562 leukemia = system: K-562 leukemia
UACC-257 melanoma = system: UACC-257 melanoma
DU-145 prostate = system: DU-145 prostate
COLO 205 colon = system: COLO 205 colon
HS 578T breast = system: HS 578T breast
IGROV1 ovarian = system: IGROV1 ovarian
NCI-H460 lung = system: NCI-H460 lung
UO-31 renal = system: UO-31 renal
NCI-H522 lung = system: NCI-H522 lung
RXF 393 renal = system: RXF 393 renal
BT-549 breast = system: BT-549 breast
MDA-MB-231 breast = system: MDA-MB-231 breast
NCI-H226 lung = system: NCI-H226 lung
UACC-62 melanoma = system: UACC-62 melanoma
HCT-116 colon = system: HCT-116 colon
SF-539 CNS = system: SF-539 CNS
A549 NSCLC = system: A549 NSCLC
RPMI-8226 leukemia = system: RPMI-8226 leukemia
786-0 renal = system: 786-0 renal
SNB-19 CNS = system: SNB-19 CNS
M14 melanoma = system: M14 melanoma
HOP-62 NSCLC = system: HOP-62 NSCLC
CAKI-1 renal = system: CAKI-1 renal
MDA-MB-435 = system: MDA-MB-435
SF-268 CNS = system: SF-268 CNS

COC1C(O)CC(OC2CC(OC3CC(O[C@@H]4C(=O)c5c(cc6cc(OC7CC(OC8CC(O)C(O)C(C)O8)C(O)C(C)O7)c(C)c(O)c6c5O)CC4[C@H](OC)C(=O)C(C)=O)OC(C)C3O)OC(C)C2O)OC1C (stereo partly drawn)
GI50 (SN12C renal): 0.0138 µM | TGI (SN12C renal): > 33.3 µM | GI50 (TK-10 renal): 0.0204 µM | TGI (TK-10 renal): 0.0758 µM | GI50 (OVCAR-8 ovarian): 0.0132 µM | TGI (OVCAR-8 ovarian): > 33.3 µM | GI50 (K-562 leukemia): 0.0158 µM | GI50 (UACC-257 melanoma): 0.0107 µM | TGI (UACC-257 melanoma): 0.0414 µM | GI50 (DU-145 prostate): 0.0155 µM | TGI (DU-145 prostate): > 32.2 µM | GI50 (COLO 205 colon): 0.0121 µM | TGI (COLO 205 colon): 0.0319 µM | GI50 (HS 578T breast): 0.0111 µM | TGI (HS 578T breast): > 11.3 µM | GI50 (IGROV1 ovarian): 0.0159 µM | TGI (IGROV1 ovarian): > 33.3 µM | GI50 (NCI-H460 lung): 0.012 µM | TGI (NCI-H460 lung): > 33.3 µM | GI50 (UO-31 renal): < 0.02 µM | GI50 (NCI-H522 lung): 0.00877 µM | TGI (NCI-H522 lung): 0.0321 µM | GI50 (RXF 393 renal): 0.0252 µM | TGI (RXF 393 renal): 0.103 µM | GI50 (BT-549 breast): 0.01 µM | TGI (BT-549 breast): 0.0335 µM | GI50 (MDA-MB-231 breast): 0.0495 µM | TGI (MDA-MB-231 breast): > 33.3 µM | GI50 (NCI-H226 lung): 0.0132 µM | GI50 (UACC-62 melanoma): 0.00719 µM | TGI (UACC-62 melanoma): 0.0167 µM | GI50 (HCT-116 colon): 0.0112 µM | TGI (HCT-116 colon): > 33.3 µM | GI50 (SF-539 CNS): 0.00976 µM | TGI (SF-539 CNS): 0.0274 µM | GI50 (A549 NSCLC): 0.0159 µM | TGI (A549 NSCLC): > 33.3 µM | GI50 (RPMI-8226 leukemia): 0.0106 µM | TGI (RPMI-8226 leukemia): 0.206 µM | GI50 (786-0 renal): 0.0331 µM | TGI (786-0 renal): > 33.3 µM | GI50 (SNB-19 CNS): 0.0105 µM | TGI (SNB-19 CNS): > 33.3 µM | GI50 (M14 melanoma): 0.00843 µM | TGI (M14 melanoma): 0.0214 µM | GI50 (HOP-62 NSCLC): 0.00895 µM | TGI (HOP-62 NSCLC): 0.0269 µM | GI50 (CAKI-1 renal): 0.0415 µM | TGI (CAKI-1 renal): > 33.3 µM | GI50 (MDA-MB-435): 0.0149 µM | TGI (MDA-MB-435): 0.0343 µM | GI50 (SF-268 CNS): 0.0137 µM | TGI (SF-268 CNS): 0.138 µM
